Results taken from PubChem BioAssay AID2060621 (Molecular Pharmacology Branch, DTP, NCI, 2025).
Where “and” joins values, the source holds several entries; their conditions need not be identical. Identical values can stand only once.

System: 324938-238-R-J1-PDC complex spheroids viability
Assay: Anticancer human tumor 324938-238-R-J1-PDC patient-derived bladder carcinoma cell line growth inhibition [CLK]
Conditions: for viability, T/C: stronger effect = lower value
Summary of the method: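 Multi-cell-type spheroids combined patient-derived tumor cells with HUVEC endothelial cells and human mesenchymal stem cells. Paired agents were dosed in half-log steps down from about clinical Cmax, or from 10 microM where Cmax was unknown.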

[1] = curve of first compound, second compound 0.0316 µM
[2] = curve of first compound, second compound 0.1 µM
[3] = curve of first compound, second compound 0.316 µM
[4] = curve of first compound, second compound 1 µM
[5] = curve of first compound, second compound 3.16 µM
[6] = curve of first compound, second compound 10 µM
[7] = second compound 0.0316 µM, first compound 0.0316 µM
[8] = second compound 0.0316 µM, first compound 0.1 µM
[9] = second compound 0.0316 µM, first compound 0.316 µM
[10] = second compound 0.0316 µM, first compound 1 µM
[11] = second compound 0.0316 µM, first compound 3.16 µM
[12] = second compound 0.0316 µM, first compound 10 µM
[13] = second compound 0.1 µM, first compound 0.0316 µM
[14] = second compound 0.1 µM, first compound 0.1 µM
[15] = second compound 0.1 µM, first compound 0.316 µM
[16] = second compound 0.1 µM, first compound 1 µM
[17] = second compound 0.1 µM, first compound 3.16 µM
[18] = second compound 0.1 µM, first compound 10 µM
[19] = second compound 0.316 µM, first compound 0.0316 µM
[20] = second compound 0.316 µM, first compound 0.1 µM
[21] = second compound 0.316 µM, first compound 0.316 µM
[22] = second compound 0.316 µM, first compound 1 µM
[23] = second compound 0.316 µM, first compound 3.16 µM
[24] = second compound 0.316 µM, first compound 10 µM
[25] = second compound 1 µM, first compound 0.0316 µM
[26] = second compound 1 µM, first compound 0.1 µM
[27] = second compound 1 µM, first compound 0.316 µM
[28] = second compound 1 µM, first compound 1 µM
[29] = second compound 1 µM, first compound 3.16 µM
[30] = second compound 1 µM, first compound 10 µM
[31] = second compound 3.16 µM, first compound 0.0316 µM
[32] = second compound 3.16 µM, first compound 0.1 µM
[33] = second compound 3.16 µM, first compound 0.316 µM
[34] = second compound 3.16 µM, first compound 1 µM
[35] = second compound 3.16 µM, first compound 3.16 µM
[36] = second compound 3.16 µM, first compound 10 µM
[37] = second compound 10 µM, first compound 0.0316 µM
[38] = second compound 10 µM, first compound 0.1 µM
[39] = second compound 10 µM, first compound 0.316 µM
[40] = second compound 10 µM, first compound 1 µM
[41] = second compound 10 µM, first compound 3.16 µM
[42] = second compound 10 µM, first compound 10 µM
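Further: viability read after seven days of drug exposure.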
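Wherever viability, T/C is given: 100% = DMSO vehicle control wells.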

NC(=O)C(=Cn1cnc(-c2cc(C(F)(F)F)cc(C(F)(F)F)c2)n1)c1cncnc1 + CN1CCN(c2cc(C(=O)Nc3cc4cc(-c5cnn(C)c5)ccc4cn3)ccn2)CC1
IC50 [1]: 44.9 nM | IC50 [2]: < 9.49 nM | IC50 [3]: < 9.49 nM | IC50 [4]: < 9.49 nM | IC50 [5]: < 9.49 nM | IC50 [6]: < 9.49 nM | viability, T/C (second compound 0.0316 µM, first compound 0.00949 µM): 73.6% | viability, T/C (second compound 0.0316 µM, first compound 0.03 µM): 56.1% | viability, T/C (second compound 0.0316 µM, first compound 0.0949 µM): 37.3% | viability, T/C (second compound 0.0316 µM, first compound 0.3 µM): 11.8% | viability, T/C (second compound 0.0316 µM, first compound 0.949 µM): 4.81% | viability, T/C (second compound 0.0316 µM, first compound 3 µM): 2.71% | viability, T/C (second compound 0.1 µM, first compound 0.00949 µM): 47.5% | viability, T/C (second compound 0.1 µM, first compound 0.03 µM): 37.8% | viability, T/C (second compound 0.1 µM, first compound 0.0949 µM): 26% | viability, T/C (second compound 0.1 µM, first compound 0.3 µM): 8.9% | viability, T/C (second compound 0.1 µM, first compound 0.949 µM): 3.44% | viability, T/C (second compound 0.1 µM, first compound 3 µM): 1.05% | viability, T/C (second compound 0.316 µM, first compound 0.00949 µM): 21.6% | viability, T/C (second compound 0.316 µM, first compound 0.03 µM): 13.4% | viability, T/C (second compound 0.316 µM, first compound 0.0949 µM): 11.1% | viability, T/C (second compound 0.316 µM, first compound 0.3 µM): 1.12% | viability, T/C (second compound 0.316 µM, first compound 0.949 µM): 0.14% | viability, T/C (second compound 0.316 µM, first compound 3 µM): 0.06% | viability, T/C (second compound 1 µM, first compound 0.00949 µM): 0.21% | viability, T/C (second compound 1 µM, first compound 0.03 µM): 0.17% | viability, T/C (second compound 1 µM, first compound 0.0949 µM): 0.15% | viability, T/C (second compound 1 µM, first compound 0.3 µM): 0.09% | viability, T/C (second compound 1 µM, first compound 0.949 µM): 0.08% | viability, T/C (second compound 1 µM, first compound 3 µM): 0.09% | viability, T/C (second compound 3.16 µM, first compound 0.00949 µM): 0.09% | viability, T/C (second compound 3.16 µM, first compound 0.03 µM): 0.13% | viability, T/C (second compound 3.16 µM, first compound 0.0949 µM): 0.16% | viability, T/C (second compound 3.16 µM, first compound 0.3 µM): 0.12% | viability, T/C (second compound 3.16 µM, first compound 0.949 µM): 0.12% | viability, T/C (second compound 3.16 µM, first compound 3 µM): 0.11% | viability, T/C (second compound 10 µM, first compound 0.00949 µM): 0.07% | viability, T/C (second compound 10 µM, first compound 0.03 µM): 0.12% | viability, T/C (second compound 10 µM, first compound 0.0949 µM): 0.23% | viability, T/C (second compound 10 µM, first compound 0.3 µM): 0.16% | viability, T/C (second compound 10 µM, first compound 0.949 µM): 0.18% | viability, T/C (second compound 10 µM, first compound 3 µM): 0.21%

CC(Nc1ccc2c(c1)OCCn1cc(N3C(=O)OCC3C(F)F)nc1-2)C(N)=O (stereo not drawn)
viability, T/C (compound 0.0316 µM): 67.9% and 69% | viability, T/C (compound 0.1 µM): 49.2% and 55% | viability, T/C (compound 0.316 µM): 32% and 34.8% | viability, T/C (compound 1 µM): 25% and 29.9% | viability, T/C (compound 3.16 µM): 20.4% and 24.6% | viability, T/C (compound 10 µM): 10.8% and 12.4% | IC50 (curve of compound): 91 nM and 128 nM

CC(Nc1ccc2c(c1)OCCn1cc(N3C(=O)OCC3C(F)F)nc1-2)C(N)=O (stereo not drawn) + CN1CCN(c2cc(C(=O)Nc3cc4cc(-c5cnn(C)c5)ccc4cn3)ccn2)CC1
IC50 [1]: 167 nM | IC50 [2]: < 31.6 nM | IC50 [3]: < 31.6 nM | IC50 [4]: < 31.6 nM | IC50 [5]: < 31.6 nM | IC50 [6]: < 31.6 nM | viability, T/C [7]: 65.8% | viability, T/C [8]: 58.5% | viability, T/C [9]: 40% | viability, T/C [10]: 29.9% | viability, T/C [11]: 24.4% | viability, T/C [12]: 15.8% | viability, T/C [13]: 48.2% | viability, T/C [14]: 40% | viability, T/C [15]: 29.6% | viability, T/C [16]: 26.5% | viability, T/C [17]: 23.3% | viability, T/C [18]: 15.5% | viability, T/C [19]: 21.3% | viability, T/C [20]: 20.8% | viability, T/C [21]: 15.2% | viability, T/C [22]: 14.1% | viability, T/C [23]: 11.8% | viability, T/C [24]: 9.85% | viability, T/C [25]: 1.49% | viability, T/C [26]: 2.08% | viability, T/C [27]: 1.71% | viability, T/C [28]: 0.86% | viability, T/C [29]: 0.52% | viability, T/C [30]: 0.51% | viability, T/C [31]: 0.1% | viability, T/C [32]: 0.15% | viability, T/C [33]: 0.14% | viability, T/C [34]: 0.1% | viability, T/C [35]: 0.16% | viability, T/C [36]: 0.18% | viability, T/C [37]: 0.07% | viability, T/C [38]: 0.14% | viability, T/C [39]: 0.19% | viability, T/C [40]: 0.12% | viability, T/C [41]: 0.17% | viability, T/C [42]: 0.2%

O=C(c1cc(Cc2n[nH]c(=O)c3ccccc23)ccc1F)N1CCN(C(=O)C2CC2)CC1 + CNC(=O)c1ccc(Nc2nc(OC3CCCC3)c3c(-c4ccc5nc(C)oc5c4)c[nH]c3n2)c(OC)c1
IC50 [1]: 4260 nM | IC50 [2]: < 31.6 nM | IC50 [3]: < 31.6 nM | IC50 [4]: < 31.6 nM | IC50 [5]: < 31.6 nM | IC50 [6]: < 31.6 nM | viability, T/C [7]: 90.9% | viability, T/C [8]: 78.5% | viability, T/C [9]: 83.2% | viability, T/C [10]: 77.7% | viability, T/C [11]: 56.9% | viability, T/C [12]: 29.4% | viability, T/C [13]: 31.1% | viability, T/C [14]: 27.2% | viability, T/C [15]: 24.9% | viability, T/C [16]: 28% | viability, T/C [17]: 30.4% | viability, T/C [18]: 20.8% | viability, T/C [19]: 18.6% | viability, T/C [20]: 20.8% | viability, T/C [21]: 16.2% | viability, T/C [22]: 21.2% | viability, T/C [23]: 19% | viability, T/C [24]: 17.9% | viability, T/C [25]: 15.9% | viability, T/C [26]: 15.2% | viability, T/C [27]: 16.8% | viability, T/C [28]: 15.3% | viability, T/C [29]: 17.7% | viability, T/C [30]: 15.8% | viability, T/C [31]: 16.9% | viability, T/C [32]: 17.1% | viability, T/C [33]: 19.4% | viability, T/C [34]: 17.3% | viability, T/C [35]: 15.5% | viability, T/C [36]: 17.7% | viability, T/C [37]: 16.2% | viability, T/C [38]: 14.3% | viability, T/C [39]: 15.3% | viability, T/C [40]: 18.2% | viability, T/C [41]: 16.1% | viability, T/C [42]: 17.4%
